The values below come from patent US20240132431A1, “METHOD FOR ALKYLATING ACIDIC FUNCTIONAL GROUP” (Chugai Seiyaku Kabushiki Kaisha, priority 2021, published 2024).

This assay deals with T1, Bcl-2 protein (Recombinant Human Bcl-2 Protein) (Homo sapiens, UniProt P10415).
T1 construct: purchased Novus NBP2-34889
Nature of the assay: Binding evaluation of mixture library compounds to Bcl-2 using AS-MS (affinity selection mass spectrometry). The conditions noted are these: for ASMS ratio (%) n = 1 / ASMS ratio (%) n = 2: ASMS Ratio(%)=(A−C)/B×100; for ASMS ratio (%) n = 1: replicate n = 1; for ASMS ratio (%) n = 2: replicate n = 2. The method in brief: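 Bcl-2 binding is scored from LC/MS signal retained with protein through gel-filtration spin columns, normalised to unfiltered and protein-free controls. Incubation: 20 μM protein, […] per compound, 1 h, 23° C.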

Where [1] appears, read: AS-MS, mixture of 1200 compounds, Bcl-2.
[2] abbreviates: AS-MS on the mixture of 1200 library compounds.

The structures appear in SMILES notation.

T1 sequence (P10415 whole entry): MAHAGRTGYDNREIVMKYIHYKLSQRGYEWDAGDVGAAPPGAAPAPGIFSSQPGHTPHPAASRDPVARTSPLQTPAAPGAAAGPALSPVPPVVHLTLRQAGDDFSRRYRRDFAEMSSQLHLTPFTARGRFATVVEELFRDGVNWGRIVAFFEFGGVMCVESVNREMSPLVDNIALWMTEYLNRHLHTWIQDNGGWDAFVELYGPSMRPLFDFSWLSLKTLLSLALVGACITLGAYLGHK

For the compound `CCOc1cncc(-c2cc(CN3CCN(c4ccc(C(=O)NCC(F)(F)F)cc4)CC3)cc(OCC)c2)c1` [B1K056-01, 4-[4-[[3-Ethoxy-5-(5-ethoxypyridin-3-yl)phenyl]methyl]piperazin-1-yl]-N-(2,2,2-trifluoroethyl)benzamide], under setting [1], the “ASMS ratio (%) n = 1” value came to 3.3% and the “ASMS ratio (%) n = 2” value worked out at 0.2%.

For `CCOc1cncc(-c2cc(CN3CCN(c4ccc(C(=O)Nc5ccc(OC)cc5)cc4)CC3)cc(C(F)(F)F)c2)c1` [B1O062-01, 4-[4-[[3-(5-Ethoxypyridin-3-yl)-5-(trifluoromethyl)phenyl]methyl]piperazin-1-yl]-N-(4-methoxyphenyl)benzamide], under setting [2], the “ASMS ratio (%) n = 1” value was found to be 1.3% and the “ASMS ratio (%) n = 2” value stood at 4.6%. Take `CCOc1cccc(-c2cc(CN3CCN(c4ccc(C(=O)NS(=O)(=O)C(C)(C)C)nn4)CC3)cc(OC(F)(F)F)c2)c1` [B2L089-01, N-tert-Butylsulfonyl-6-[4-[[3-(3-ethoxyphenyl)-5-(trifluoromethoxy)phenyl]methyl]piperazin-1-yl]pyridazine-3-carboxamide]: the “ASMS ratio (%)” value runs as follows: (n = 1) 0.0%; (n = 2) 0.0%.

`CCOc1cncc(-c2ccc(CN3CCN(c4ccc(C(=O)NCC(F)(F)F)cc4)CC3)c3ccccc23)c1` [B1K066-01, 4-[4-[[4-(5-Ethoxypyridin-3-yl)naphthalen-1-yl]methyl]piperazin-1-yl]-N-(2,2,2-trifluoroethyl)benzamide]: under setting [1], the “ASMS ratio (%) n = 1” value was found to be 1.8% and the “ASMS ratio (%) n = 2” value is on record as −0.7%. In the case of `CCOc1cncc(-c2ccccc2CCC(=O)N2CCN(c3ccc(C(=O)Nc4ccc(OC)cc4)cc3)CC2)c1` [B1O034-01, 4-[4-[3-[2-(5-Ethoxypyridin-3-yl)phenyl]propanoyl]piperazin-1-yl]-N-(4-methoxyphenyl)benzamide], under setting [2], the “ASMS ratio (%) n = 1” value was 0.1% and the “ASMS ratio (%) n = 2” value was 0.2%. The corresponding values for `CCOc1cccc(-c2cnn(-c3cc(C(=O)N4CCN(c5ccc(C(=O)N(CC)CC)nn5)CC4)cc(C(F)(F)F)c3)c2)c1` [B4J021-01, 6-[4-[3-[4-(3-Ethoxyphenyl)pyrazol-1-yl]-5-(trifluoromethyl)benzoyl]piperazin-1-yl]-N,N-diethylpyridazine-3-carboxamide] are 0.0% and 0.0%. For `CCOc1cncc(-c2cc(CN3CCN(c4ccc(C(=O)NCC56CC7CC(CC(C7)C5)C6)cc4)CC3)cc(OC(C)C)c2)c1` [B1A058-01, N-(1-Adamantylmethyl)-4-[4-[[3-(5-ethoxypyridin-3-yl)-5-propan-2-yloxyphenyl]methyl]piperazin-1-yl]benzamide], the “ASMS ratio (%) n = 2” value under setting [1] stood at 0.0%.

Turning to `CCOc1cccc(-c2ccc(C(C)N3CCN(c4ccc(C(=O)NS(C)(=O)=O)cc4)CC3)c(F)c2)c1` (centres unmarked) [B2I099-01, 4-[4-[1-[4-(3-Ethoxyphenyl)-2-fluorophenyl]ethyl]piperazin-1-yl]-N-methylsulfonylbenzamide], the “ASMS ratio (%)” value (n = 2) stood at 0.0%. Consider `CCOc1cncc(-c2csc(CN3CCN(c4ccc(C(=O)N(CC)CC)cc4)CC3)c2)c1` [B4J068-01, 4-[4-[[4-(5-Ethoxypyridin-3-yl)thiophen-2-yl]methyl]piperazin-1-yl]-N,N-diethylbenzamide], for which, for the setting “AS-MS, mixture library, Bcl-2”, the “ASMS ratio (%) n = 1” value came out at 0.7% and the “ASMS ratio (%) n = 2” value is on record as 0.0%. As to `CCOc1cncc(-c2ccc(CN3CCN(c4ccc(C(=O)NS(C)(=O)=O)nn4)CC3)cc2F)c1` [B2I078-01], the “ASMS ratio (%)” value is, setting by setting: (n = 1) 0.0%; (n = 2) 0.0%. Turning to `CCOc1cccc(C#Cc2ccccc2CN2CCN(c3ccc(C(=O)NS(=O)(=O)c4ccc(NCCSc5ccccc5)c([N+](=O)[O-])c4)nn3)CC2)c1` [B2Q095-01], where the note is “AS-MS, mixture library, Bcl-2”, the “ASMS ratio (%) n = 1” value is 19.9% and the “ASMS ratio (%) n = 2” value is 11.9%.
